These results are taken from paper PMC8772772, “Enantioselective Synthesis and Pharmacological Evaluation of Aza-CGP37157–Lipoic Acid Hybrids for the Treatment of Alzheimer’s Disease” (Antioxidants, 2022).

The structures appear in SMILES notation.

The assay concerns HO-1 and GCLc. The experiment in a line: Western blot of NRF2-dependent proteins HO-1 and GCLc in AREc32 cells. It counts as cell-based. Conditions: 30 μM, 24 h, western blot vs basal. The method, then:
AREc32 cells were seeded in 6 multi-well plates (1 × 10^6 cells/well) for 24 h and treated with compounds 7a and 7b (30 µM) and culture medium (basal) for 24 h. Thereafter, cells were collected and lysed in ice-cold lysis buffer (10% glycerol, 137 mM NaCl, 1% Nonidet P-40, 20 mM Tris HCl pH 7.5, 1 mM phenylmethylsulfonyl fluoride, 20 mM NaF, 1 mM sodium pyrophosphate, 1 μg/mL leupeptin and 1 mM Na3VO4). Then proteins (30 μg) were resolved by gel electrophoresis on sodium dodecyl sulfate–polyacrylamide (10% and 12%) and transferred to Immobilion-P membranes (MilliporeSigma, Madrid, Spain). The membranes were incubated with anti-GCLc (1:1000, Ab41463 (Abcam, Cambridge, MA, USA), anti-HO-1 (1:1000, ab68477, Abcam) or anti-Actin (1:100,000, A3854, Merck, Madrid, Spain). Peroxidase-conjugated secondary antibodies (1:10,000 and antirabbit: SC-2357, Santa Cruz Biotechnology, Dallas, TX, USA) were employed to detect the proteins by enhanced chemiluminescence. Band intensities corresponding to immunoblot detection of protein samples were quantitated with Fiji software.
Once in the nucleus, NRF2 binds to small MafG protein, and the resulting complex binds to the ARE sequences at the DNA to initiate the expression of phase II antioxidant proteins. HO-1 and GCLc are two prominent examples of antioxidant enzymes regulated by the NRF2-ARE pathway related to the heme group processing and the synthesis of glutathione, the major antioxidant defense inside the cells. […] Thereafter, protein expression was evaluated.

For the compound `O=C1CN(CCOC(=O)CCCC[C@H]2CCSS2)[C@@H](c2ccccc2Cl)c2cc(Cl)ccc2N1` [(S,R)-7b, 2-((R)-7-Chloro-5-(2-chlorophenyl)-2-oxo-1,2,3,5-tetrahydro-4H-benzo[e][1,4]diazepin-4-yl)ethyl 5-((S)-1,2-dithiolan-3-yl)pentanoate], the GCLc expression entry is “significantly increased” and the HO-1 expression result is reported as “significantly increased”.

As for `O=C1CN(CCOC(=O)CCCC[C@H]2CCSS2)[C@H](c2ccccc2Cl)c2cc(Cl)ccc2N1` [(S,S)-7a, 2-((S)-7-Chloro-5-(2-chlorophenyl)-2-oxo-1,2,3,5-tetrahydro-4H-benzo[e][1,4]diazepin-4-yl)ethyl 5-((S)-1,2-dithiolan-3-yl)pentanoate], the GCLc expression result was “significantly increased” and the HO-1 expression entry is “significantly increased”.
